Measurements as given in patent publication US20110229575A1, “DEEP IMMERSION FLOTATION THERAPY FOR BURN VICTIMS” (priority 2008, published 2011).

Columns and labels:
[1] = Lipophilicity of the PFC; type: physicochemical
Text: Circulation of the perflurocarbon liquid can be employed so that the patient floats without constraints, alleviating pain associated with usual system of treatment. As the liquid is continuously circulated, external heating or cooling of the fluid can be employed in order to maintain a comfort level for the patient. The fluid is preferably filtered to assure a biologically inert and/or sterile liquid environment for the patient. Additionally, a gas mixture containing 0 to 100% oxygen from (with adequate controls and precautions for ultra-ambient levels) is bubbled in the circulating PFC to supply oxygen to the patient's skin. PFCs are excellent transporters of oxygen and carbon dioxide; being that the PFCs are slightly lipophilic at body temperature and would help in the transport of oxygen into and removal of carbon dioxide from the skin tissue, accelerating the healing process.

[2] = Physical properties of F-tert-butylcyclohexane; type: physicochemical
Text: Oxycyte™ is based on the perfluorocarbon F-tert-butylcyclohexane, a saturated alicyctic PFC (molecular formula C10F20) and can be used as a PFC composition in the methods and uses described herein. Physical properties of F-tert-butylcyclohexane are as follows: […]

Lipophilicity ([1]; at body temperature): only slightly lipophilic
Lipophilicity ([1]; at room temperature): not lipophilic
Density [2]: 1.97 g/mL
Kinematic Viscosity [2]: 5.378 cP
Vapor Pressure ([2]; @25° C.): 3.8 mmHg
Vapor Pressure ([2]; @37° C.): 4.4 mmHg
SMILES: FC(F)(F)C(C(F)(F)F)(C(F)(F)F)C1(F)C(F)(F)C(F)(F)C(F)(F)C(F)(F)C1(F)F [F-tert-butylcyclohexane, perfluoro-tert-butylcyclohexane]
